# Reference: PMC8164609 (Environmental Science and Pollution Research International, 2021)
# pEC50: −log10 of the molar value. Where “and” joins values, the source holds several entries; their conditions need not be identical. Identical values can stand only once.
# Legend:
# [1] = tested on: MCF-7 cells; experiment: In vitro micronucleus assay for cytokinesis block; type: cell-based, human; settings: 24 h; for Micronuclei per 1000 binucleated cells, Replicates: single replicate values
# Experimental: The genotoxicity of EEDCs to MCF-7 cells was assessed by the in vitro micronucleus assay for cytokinesis block. MCF-7 cells were seeded at a density of 5×10^4/well in a 12-well plate in SF medium containing DMEM, 7% charcoal-stripped FBS and 4 mM L-glutamine. These cells were treated with test compounds or the positive control for 24 h. Then, cells were washed twice with PBS, treated with 2 μg/mL cytochalasin B, and incubated for 1.5–2 normal cell cycle lengths (~24 h for MCF-7 cells). Finally, cells were washed with PBS and fixed with 4% paraformaldehyde for 10–15 min (in PBS, pH 6.9). Before staining cells with 5% Giemsa stain for 20 min, plates were washed again with PBS and dried. The frequency of micronuclei per 1000 binucleated cells was counted for each well, and the ratio of micronucleus frequency in treated vs. control cells was defined as fold induction. Cells in mitosis were omitted.
# [2] = tested on: mice; set-up: method as in Poul et al. [2009]; settings: 20, 200 or 1000 mg/kg twice, 24-h interval, oral gavage; ref Poul et al. [2009]; cited from earlier work
# [3] = target: estrogen receptor; set-up: method as in Axon et al. [2012]; settings: reporter gene construct in human ERα-positive MCF-7 cells; ref Axon et al. [2012]; read-out: EC50 concentration for estrogen receptor activation; cited from earlier work
# [4] = tested on: MCF-7 cells; experiment: MCF-7 cell proliferation assay (MTT reduction); type: cell-based, human; settings: MCF-7 cells, MTT
# Experimental: MCF-7 cell line which is sensitive to estrogen (ERα^+) was kindly provided by Dr. Sari Tojkander (Department of Veterinary Biosciences, Faculty of Veterinary Medicine, University of Helsinki). Cells were usually grown in T25 or T75 flasks containing DMEM with or without phenol red and supplemented with 7–10% FBS and 4 mM L-glutamine at 37°C in 5% CO2/95% humidified atmosphere. In order to eliminate the disturbing effect of hormones usually present in FBS, cell culture medium supplemented with commercially available charcoal-stripped FBS and 4 mM L-glutamine (SF medium) was used for experiments.
# The effect of EEDCs on the proliferation of MCF-7 cells was assessed as previously described by measuring the capacity of the cells in each well to reduce MTT reagent (Van Meeuwen et al. [2007]). Approximately 5000 cells/200 μL of SF medium containing DMEM without phenol red, 5% charcoal-stripped FBS, and 4 mM L-glutamine were seeded per well in a 96-well cell culture plate. On day 2, cells were treated with the SF medium containing test compounds or vehicle. The final concentration of the solvents DMSO and EtOH was lower than 0.1%. On day 5, the SF medium containing test compounds or vehicle were refreshed. On day 8, cells were washed with PBS twice and then incubated with the SF medium containing 1 mg/mL MTT reagent for 1 h. The ability of MCF-7 cells to reduce MTT was measured at the reference wavelength of 595 nm using a microplate reader (Multiskan Ascent, Thermo Fisher Scientific). All the exposures were in triplicate.
# The dose-response curves of test samples were plotted against logarithmic-transformed concentrations.
# [5] = target: T1, human ERα (Homo sapiens, UniProt P03372); experiment: Yeast bioluminescent assay, S. cerevisiae BMAEREluc/ERα (ERE-luc reporter); type: cell-based; settings: S. cerevisiae BMAEREluc/ERα, about 2.5 h incubation, 5% EtOH vehicle; read-out: EC50 (estrogenic potency, luminescence)
# T1 construct: expressed in transfected cells; host or cells: Saccharomyces cerevisiae BMAEREluc/ERα (recombinant yeast, gift of Dr. Johanna Rajasärkkä, University of Helsinki)
# T1 sequence (P03372 1-595): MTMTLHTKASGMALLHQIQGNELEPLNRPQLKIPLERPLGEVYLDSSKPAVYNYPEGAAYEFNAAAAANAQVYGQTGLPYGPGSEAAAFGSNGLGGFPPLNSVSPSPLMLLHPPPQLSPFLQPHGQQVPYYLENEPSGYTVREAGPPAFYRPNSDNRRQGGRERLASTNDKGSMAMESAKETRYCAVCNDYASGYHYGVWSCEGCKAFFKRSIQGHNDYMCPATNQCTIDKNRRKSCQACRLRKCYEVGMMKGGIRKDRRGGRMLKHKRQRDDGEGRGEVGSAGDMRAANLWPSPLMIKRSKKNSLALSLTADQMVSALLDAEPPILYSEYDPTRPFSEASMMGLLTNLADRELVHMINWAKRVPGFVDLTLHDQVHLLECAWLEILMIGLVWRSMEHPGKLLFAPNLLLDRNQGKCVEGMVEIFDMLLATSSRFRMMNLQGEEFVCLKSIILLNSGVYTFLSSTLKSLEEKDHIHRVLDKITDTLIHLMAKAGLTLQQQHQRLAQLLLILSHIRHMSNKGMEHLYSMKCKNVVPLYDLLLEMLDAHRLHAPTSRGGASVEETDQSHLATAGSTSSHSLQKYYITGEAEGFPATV
# Experimental: Yeast bioluminescent assay was performed as previously described (Omoruyi and Pohjanvirta [2018]). Two recombinant yeasts, Saccharomyces cerevisiae BMAEREluc/ERα and Saccharomyces cerevisiae BMA64/luc, were kindly provided by Dr. Johanna Rajasärkkä, Department of Food and Environmental Sciences, Faculty of Agriculture and Forestry, University of Helsinki. In the BMAEREluc/ERα, human ERα is expressed. After estrogen-like chemicals bind to ERα, the dimerized receptor binds to a specific DNA sequence called estrogen response element (ERE), in the promotor region of the luc reporter gene, inducing its expression. In BMA64/luc, the luciferase is expressed constitutively, and this strain can be used for the evaluation of cytotoxicity of test compounds. […]
# Next, 90 μL of cultured yeasts containing 1:20 luciferin solution (0.042 g luciferin dissolved in 9.75 mL of 0.2 M trisodium citrate, and 5.525 mL of 0.2 M citrate, pH 5) was pipetted into every well of a white 96-well flat-bottom plate, and 10 μL of test compounds in a defined concentration range (diluted in 5% EtOH) were added. […] The luminescence measurement was performed with Luminoskan Ascent microplate luminometer (Thermo Labsystems) using the recommended settings as follows: 1000 ms integration time, single measurement mode, shaking at 60 rpm for 5 s prior to measurement. […]
structure (smiles),measurement,setting,value
O=C([O-])C1=NN(c2ccc(S(=O)(=O)[O-])cc2)C(=O)C1N=Nc1ccc(S(=O)(=O)[O-])cc1.[Na+].[Na+].[Na+] (centres unmarked) [tartrazine],Fold (micronucleus frequency treated vs. control),[1]; 10^−7 M,2.81
same,"Micronuclei per 1000 binucleated cells, Average",[1]; 10^−7 M,29 per 1000 binucleated cells
same,"Micronuclei per 1000 binucleated cells, Replicates",[1]; 10^−7 M,29 per 1000 binucleated cells and 31 per 1000 binucleated cells and 27 per 1000 binucleated cells
same,Fold (micronucleus frequency treated vs. control),[1]; 10^−8 M,2.10
same,"Micronuclei per 1000 binucleated cells, Average",[1]; 10^−8 M,21.67 per 1000 binucleated cells
same,"Micronuclei per 1000 binucleated cells, Replicates",[1]; 10^−8 M,21 per 1000 binucleated cells and 19 per 1000 binucleated cells and 25 per 1000 binucleated cells
same,mutagenic or cytotoxic effects in mice,[2],did not elicit mutagenic or cytotoxic effects
same,pEC50,[3],6.80
same,efficacy (maximum induction of cell growth) compared with 17β-estradiol,[4],about one third
same,pEC50,"[4]; hormone-depleted medium, read-out: EC50 (proliferative effect)",8.13
same,pEC50,[5],10.00
